Legend:
Type in all cases: physicochemical
[1] = Equilibrium solubility in aqueous media; conditions: for solubility at 24 h: 25 °C, thermodynamic from solid; for Remaining Solid: XRPD
Experimental: Approximately 10 mg of Form B was weighed into a 1-ml glass vial followed by addition of 0.5 ml relevant media. Each sample was continuously stirred using a magnetic stir bar at 25° C. for 24 h. The suspension was then filtered using a nylon membrane with a pore diameter of 0.22 μm. The filtrates were diluted for HPLC analysis and final pH was measured. The solid residue of each sample was collected for XRPD analysis.
The solubilities of Form B in water and five different pH values at 25° C. were determined by HPLC after 24 h equilibration. Solubility data for Form B was obtained across the physiological pH by using buffer solutions from pH 2 to pH 10.
Preparation of pH Buffers • pH 2: 0.01N HCl solution. Dilute 1 ml of 1 N HCl with H2O up to a total volume of 100 ml. Measure the pH and precisely adjust to pH=2.00 using a few microliters of 1N HCl or 1N NaOH. • pH 4: 50 mM Na citrate buffer. Prepare a 50 mM citric acid solution by diluting 10 ml of 1N citric acid with H2O up to a total volume of 200 ml. Slowly add solid NaOH under stirring to increase the pH to 3.8-4.0 and use a few microliters of 1N NaOH for final adjustment to pH 4.00. • pH 6: 50 mM Na citrate buffer. Use the same procedure as the pH 4 buffer and adjust to pH=6.00 • pH 8: 50 mM Na phosphate buffer. Prepare a 50 mM NaH2PO4 solution by dissolving 6.00 g NaH2PO4 in 1 L of H2O and a 50 mM Na2HPO4 solution by dissolving 7.10 g in 1 L of H2O. Mix 10 ml of the NaH2PO4 solution with 140 ml of the Na2HPO4 solution in a beaker. Adjust to pH 8.00 by addition of small amounts of 50 mM NaH2PO4 or Na2HPO4 solution. • pH 10: 50 mM Na carbonate buffer. Prepare a 50 mM carbonate solution by dissolving 840 mg of sodium bicarbonate (NaHCO3) in about 180 ml of H2O. Slowly adjust the pH to 10.0±0.1 by addition of 1N NaOH. Add water to reach the total volume of 200 ml and adjust to pH 10.00 with 1N NaOH.

[2] = Slurry experiments using Form A and Form B (relative stability)
Experimental: The relative stability between Form A and Form B was investigated by slurry experiments in ACN (containing less than 0.3 wt % water), ACN/H2O (v/v, 3; 1), and H2O at room temperature and 50° C. In general, about 10-30 mg Form A was added to a 5-ml glass vial with 0.5 ml corresponding solvents to get suspensions at room temperature and 50° C., respectively. Then 10-30 mg Form B was added to the suspensions which were kept stirring for 24 h. The water activity was calculated using the UNIFAC model.

[3] = Slurry experiments using Form B and Form C (relative stability); conditions: RT
Experimental: The relative stability between Form B and Form C was investigated as a function of water activity at room temperature using ACN/H2O. In general, about 10-30 mg Form B was added to a 5-ml glass vial with 0.5 ml corresponding solvents to get suspensions at room temperature. Then 10-30 mg Form C was added to the suspensions which were kept stirring for 24 h. The water activity was calculated using the UNIFAC model.

[4] = Solid-state stability
Experimental: Chemical Stability: Accurately weighed ˜10 mg Form B was placed into four 10-ml volumetric flasks. The samples were stored at 5° C. closed dish, 25° C./57% RH open dish, 40° C./75% RH open dish, and 60° C. closed dish for 7 days. The sample stored at 5° C. was used as a control. Assay and total related substances for each sample were checked at the end of 7 days.
Physical Stability: Accurately weighed ˜15 mg of Form B was placed into 5-ml glass vials and the samples were stored at 5° C. closed dish, 25° C./57% RH open dish, 40° C./75% RH open dish, and 60° C. closed dish for 7 days. Samples were analyzed by XRPD and TGA (FIG. 24).

[5] = 0.01N HCl, pH (initial) 2.0, RT, 24 h
[6] = 50 mM Na carbonate buffer, pH (initial) 10.0, RT, 24 h
[7] = 50 mM Na phosphate buffer, pH (initial) 8.0, RT, 24 h
[8] = 50 mM sodium citrate, pH (initial) 4.0, RT, 24 h
[9] = 50 mM sodium citrate, pH (initial) 6.0, RT, 24 h
[10] = 5° C. Closed Dish, 7 Days (control)
[11] = 25° C./57% RH Open Dish, 7 Days
[12] = 40° C./75% RH Open Dish, 7 Days

- solubility at 24 h ([1]; 0.01N HCl solution, pH 2, simulated gastric fluid, 0.01N HCl, pH (initial) 2.0, RT, 24 h): 3400 µg/mL
- pH (final) [1, 5]: 5.5
- Remaining Solid [1, 5]: Form B
- pH (final) [1, 6]: 10.0
- Remaining Solid [1, 6]: Form B
- Solubility ([1]; 50 mM Na carbonate buffer, pH (initial) 10.0, RT, 24 h, LOD 0.1 μg/ml): <LOD^
- pH (final) [1, 7]: 8.0
- Remaining Solid [1, 7]: Form B
- Solubility ([1]; 50 mM Na phosphate buffer, pH (initial) 8.0, RT, 24 h, LOD 0.1 μg/ml): <LOD^§
- solubility at 24 h ([1]; 50 mM sodium citrate buffer, pH 4, aqueous buffer, 50 mM sodium citrate, pH (initial) 4.0, RT, 24 h): 9800 µg/mL
- solubility at 24 h ([1]; 50 mM sodium citrate buffer, pH 6, aqueous buffer, 50 mM sodium citrate, pH (initial) 6.0, RT, 24 h): 80 µg/mL
- pH (final) [1, 8]: 5.4
- Remaining Solid [1, 8]: Form B
- Solubility ([1]; 50 mM sodium citrate, pH (initial) 4.0, RT, 24 h, trihydrate): 9700 µg/mL
- pH (final) [1, 9]: 6.0
- Remaining Solid [1, 9]: Form B
- pH (final) ([1]; Water (unbuffered), RT, 24 h): 5.6
- Remaining Solid ([1]; Water (unbuffered), RT, 24 h): Form B
- solubility at 24 h ([1]; unbuffered water, water, RT): 1.2 µg/mL
- solubility at 24 h ([1]; unbuffered water, water, Water (unbuffered), RT, 24 h): 1.2 µg/mL
- water activity at which Form B is thermodynamically more stable than Form A ([2]; 50° C.): ≥ 0.08
- water activity at which Form B is thermodynamically more stable than Form A ([2]; RT): ≥ 0.09
- water activity at which Form B is thermodynamically more stable than Form C [3]: ≥ 0.30
- Chemical Area % (100% − TRS %) [4, 10]: 99.1%
- Physical TGA (%) [4, 10]: 8.63%
- Physical XRPD [4, 10]: Form B
- Chemical % Claim (Cs/Ci × 100%) ([4]; 5° C. Closed Dish, 7 Days (used as standard)): 100.0^& %
- Chemical % Claim (Cs/Ci × 100%) [4, 11]: 100.7%
- Chemical Area % (100% − TRS %) [4, 11]: 99.0%
- Physical TGA (%) [4, 11]: 8.66%
- Physical XRPD [4, 11]: Form B
- Chemical % Claim (Cs/Ci × 100%) [4, 12]: 101.0%
- Chemical Area % (100% − TRS %) [4, 12]: 99.0%
- Physical TGA (%) [4, 12]: 8.64%
- Physical XRPD [4, 12]: Form B
- Chemical % Claim (Cs/Ci × 100%) ([4]; 60° C. Closed Dish, 7 Days): 100.7%
- Chemical Area % (100% − TRS %) ([4]; 60° C. Closed Dish, 7 Days): 99.1%
- Physical TGA (%) ([4]; 60° C. Closed Dish, 7 Days): 8.49%
- Physical XRPD ([4]; 60° C. Closed Dish, 7 Days): Form B
SMILES: CC(C)N(C[C@H]1O[C@@H](n2cnc3c(N)ncnc32)[C@H](O)[C@@H]1O)[C@H]1C[C@@H](CCc2nc3cc(C(C)(C)C)ccc3[nH]2)C1 [Form B, (2R,3R,4S,5R)-2-(6-amino-9H-purin-9-yl)-5-((((1r,3S)-3-(2-(5-(tert-butyl)-1H-benzo[d]imidazol-2-yl)ethyl)cyclobutyl)(isopropyl)amino)methyl)tetrahydrofuran-3,4-diol trihydrate]
